Laboratory results taken from PMC7435646, “Design, Synthesis and Bioactive Evaluation of Oxime Derivatives of Dehydrocholic Acid as Anti-Hepatitis B Virus Agents” (Molecules, 2020).

How the values were obtained:
HBeAg = test: Inhibition of HBeAg secretion (ELISA) in HepG2.2.15 cells; format: cell-based, hepatitis B virus (HBV); details: for inhibition of HBV in vitro assay: in vitro assay (Table S1); for HBeAg IC50: ELISA, nine day treatment, mean ± S.D. (n = 3), '-' = inhibition ratio less than 50% in the test concentration range; for IC50: Hepatitis B virus, HepG2.2.15, 216 h, read-out: HBeAg IC50; for HBeAg SI: SI (selectivity index) = CC50/IC50
Protocol: HepG2.2.15 cells were kindly provided by the Chinese Academy of Medical Sciences (Beijing, China), derived from human hepatoma cell line G2. […] The compounds were diluted to the desired concentrations in culture medium. […] Every three days in a nine day period, supernatant of each well was replaced with compound-containing fresh medium.
(§1) The levels of HBeAg and HBsAg in the supernatant of the cells were measured using ELISA assay following the manufacturer’s protocol (Shanghai Kehua Bio-engineering Co., Ltd., Shanghai, China).

[1] = Cytotoxicity by MTT assay in HepG2.2.15 cells; format: cell-based; details: human, 50% cytotoxicity concentration in HepG 2.2.15 cells, mean ± S.D. (n = 3)
Protocol: (§2) HepG2.2.15 cells were kindly provided by the Chinese Academy of Medical Sciences (Beijing, China), derived from human hepatoma cell line G2. These cells were cultured in Dulbecco’s Modified Eagle’s Medium (DMEM), supplemented with 10% fetal bovine serum (FBS), 1.5 g/L of sodium bicarbonate, 10 mL/L of penicillin, and streptomycin, respectively, and 200 mg/L of G418 at 37 °C under 5% carbon dioxide in a 95–98% humidity. The compounds were diluted to the desired concentrations in culture medium. Before treated with various concentrations of compounds, cells were seeded at a density of 1 × 10^5 cells/mL in 96-well plates and incubated for 24 h at 37 °C. Every three days in a nine day period, supernatant of each well was replaced with compound-containing fresh medium.
The cytotoxicity activity of the synthesized compounds was determined by MTT assay. After refreshing the supernatant, 20 μL MTT (5 mg/mL) was added to each well, which was further cultured for 4 h at 37 °C. Then the supernatant of each well was carefully removed, formazan crystals were dissolved in […] of DMSO and the absorbance at 450 nm was recorded. Cytotoxicity of these compounds was expressed as the concentration of compound required to kill 50% (CC50) of the HepG2.2.15 cells.

HBsAg = test: Inhibition of HBsAg secretion (ELISA) in HepG2.2.15 cells; format: cell-based, hepatitis B virus (HBV); details: for IC50: Hepatitis B virus, HepG2.2.15, 216 h, read-out: HBsAg IC50; for HBsAg SI: SI (selectivity index) = CC50/IC50
Protocol: as §2
as §1, with “China). The synthesized compounds were expressed as the concentration that achieved 50% inhibition (IC50) to the secretion of HBeAg and HBsAg.” for “China).”

[2] = HepG2.2.15 cells, result in words

| SMILES | inhibition of HBV in vitro assay (HBeAg; result in words) | CC50 at 9 days [1] [µM] | melting point [°C] | HBeAg IC50 (HBeAg; HepG2.2.15 cells) | IC50 (HBeAg) [µM] | HBeAg SI (HBeAg) | IC50 (HBsAg) [µM] | HBsAg SI (HBsAg) | activity against the secretion of HBsAg (HBsAg; [2]) | activity against the secretion of HBeAg (HBeAg; [2]) |
| --- | --- | --- | --- | --- | --- | --- | --- | --- | --- | --- |
| C[C@H](CCC(=O)O)[C@H]1CC[C@H]2[C@@H]3[C@H](O)C[C@@H]4C[C@H](O)CC[C@]4(C)[C@H]3C[C@H](O)[C@]12C [Cholic acid] | did not exhibit inhibition |  |  |  |  |  |  |  |  |  |
| CC(CCC(=O)O)C1CCC2C3C(=O)CC4CC(=NO)CCC4(C)C3CC(=O)C12C (stereo not drawn) [Compound 0-1, (E)-3-(hydroxyimino)-7,12-dioxolcholanic acid] |  | > 1000 | 250.4 to 252.4 | - (The inhibition ratio less than 50% in the test concentration range) |  |  |  |  |  |  |
| CC(CCC(=O)O)C1CCC2C3C(=O)CC4CC(=NOCc5ccccc5)CCC4(C)C3CC(=O)C12C (stereo not drawn) [Compound 0-2, (E)-3-((benzyloxy)imino)-7,12-dioxolcholanic acid] |  | 470 ± 6.35 | 198.5 to 200.5 |  | 119 ± 1.86 | 3.95 |  |  |  |  |
| CON=C1CCC2(C)C(CC(=O)C3C2CC(=O)C2(C)C(C(C)CCC(=O)O)CCC32)C1 (stereo not drawn) [Compound 0-3, (E)-3-(methoxyimino)-7,12-dioxolcholanic acid] |  | > 1000 | 197.2 to 199.2 | - (The inhibition ratio less than 50% in the test concentration range) |  |  |  |  |  |  |
| C[C@H](CCC(=O)OCc1ccccc1)[C@H]1CC[C@H]2[C@@H]3C(=O)CC4C/C(=N/O)CC[C@]4(C)[C@H]3CC(=O)[C@]12C (stereo partly drawn) [Compound 2a-1, Benzyl (E)-3-(hydroxyimino)-7,12-dioxocholanoate] |  | 378 ± 25.3 | 199.2 to 201.2 |  | 229 ± 12.8 | 1.65 | 630 ± 35 | 0.60 |  |  |
| C[C@H](CCC(=O)OCc1ccccc1)[C@H]1CC[C@H]2[C@@H]3C(=O)CC4C/C(=N/OCc5ccccc5)CC[C@]4(C)[C@H]3CC(=O)[C@]12C (stereo partly drawn) [Compound 2a-2, Benzyl (E)-3-((benzyloxy)imino)-7,12-dioxocholanoate] |  | 211 ± 17.1 | 135.3 to 137.3 |  | 249 ± 47.6 | 0.85 |  |  |  |  |
| CO/N=C1\CC[C@@]2(C)[C@H](CC(=O)[C@@H]3[C@@H]2CC(=O)[C@]2(C)[C@@H]([C@H](C)CCC(=O)OCc4ccccc4)CC[C@@H]32)C1 [Compound 2a-3, Benzyl (E)-3-(methoxyimino)-7,12-dioxolcholanoate] |  | 169 ± 5.75 | 132.6 to 134.6 |  | 188 ± 9.51 | 0.90 |  |  |  |  |
| C[C@H](CCC(=O)OCc1ccc2c(c1)OCO2)[C@H]1CC[C@H]2[C@@H]3C(=O)CC4C/C(=N/O)CC[C@]4(C)[C@H]3CC(=O)[C@]12C (stereo partly drawn) [Compound 2b-1, 3,4-Methylenedioxybenzyl (E)-3-(hydroxyimino)-7,12-dioxocholanoate] |  | > 1000 | 182.5 to 184.5 |  | 96.6 ± 29 | 10.35 |  |  |  |  |
| C[C@H](CCC(=O)OCc1ccc2c(c1)OCO2)[C@H]1CC[C@H]2[C@@H]3C(=O)CC4C/C(=N/OCc5ccccc5)CC[C@]4(C)[C@H]3CC(=O)[C@]12C (stereo partly drawn) [Compound 2b-2, 3,4-Methylenedioxybenzyl (E)-3-((benzyloxy)imino)-7,12-dioxocholanoate] |  | 728 ± 45.2 | 124.3 to 126.3 | - (The inhibition ratio less than 50% in the test concentration range) |  |  |  |  |  |  |
| CO/N=C1\CC[C@@]2(C)C(CC(=O)[C@H]3[C@@H]4CC[C@H]([C@H](C)CCC(=O)OCc5ccc6c(c5)OCO6)[C@@]4(C)C(=O)C[C@@H]32)C1 (stereo partly drawn) [Compound 2b-3, 3,4-Methylenedioxybenzyl (E)-3-(methoxyimino)-7,12-dioxocholanoate] |  | 545 ± 28.9 | 118.7 to 120.7 |  | 49.4 ± 12.8 | 11.03 |  |  |  |  |
| C[C@H](CCC(=O)OCc1ccco1)[C@H]1CC[C@H]2[C@@H]3C(=O)CC4C/C(=N/O)CC[C@]4(C)[C@H]3CC(=O)[C@]12C (stereo partly drawn) [Compound 2c-1, Furan-2-ylmethyl (E)-3-(hydroxyimino)-7,12-dioxocholanoate] |  | 155 ± 30.8 | 193.2 to 195.2 |  | 111 ± 28.3 | 1.40 | 300 ± 15.3 | 0.52 |  |  |
| C[C@H](CCC(=O)OCc1ccco1)[C@H]1CC[C@H]2[C@@H]3C(=O)CC4C/C(=N/OCc5ccccc5)CC[C@]4(C)[C@H]3CC(=O)[C@]12C (stereo partly drawn) [Compound 2c-2, Furan-2-ylmethyl (E)-3-((benzyloxy)imino)-7,12-dioxocholanoate] |  | 101 ± 10.7 | 131.5 to 133.5 |  | 151 ± 32.1 | 0.67 | 464 ± 20.1 | 0.22 |  |  |
| CO/N=C1\CC[C@@]2(C)C(CC(=O)[C@H]3[C@@H]4CC[C@H]([C@H](C)CCC(=O)OCc5ccco5)[C@@]4(C)C(=O)C[C@@H]32)C1 (stereo partly drawn) [Compound 2c-3, Furan-2-ylmethyl (E)-3-(methoxyimino)-7,12-dioxocholanoate] |  | 90.9 ± 15.6 | 122.3 to 124.3 |  | 105 ± 22.2 | 0.86 | 181 ± 52.8 | 0.50 |  |  |
| C[C@H](CCC(=O)O)[C@H]1CC[C@H]2[C@@H]3C(=O)C[C@@H]4CC(=O)CC[C@]4(C)[C@H]3CC(=O)[C@]12C [DHCA, Dehydrocholic acid] | did not exhibit inhibition | > 1000 |  | - (The inhibition ratio less than 50% in the test concentration range) |  |  |  |  | no activity | no activity |
| C=C1[C@H](CO)[C@@H](O)C[C@@H]1n1cnc2c(=O)[nH]c(N)nc21 [ETV, Entecavir, reference compound] |  | 600 ± 23.4 |  |  | 247 ± 50 |  | 161 ± 35.9 | 3.72 |  |  |
